Data on five molecules can be found in patent publication US5075299A, “Cephalosporin compounds and antibacterial agents” (Meiji Seika Kaisha, Ltd., priority 1988, dated 1991).

What is called MIC is the smallest concentration in the dilution series that meets the test's criterion for growth inhibition.

The test system of series [1] is Escherichia coli W3630 RGN238. As to the kind of experiment: antibacterial activity, agar dilution method. It counts as cell-based. The following applies: W3630RGN238, read-out: Antibacterial Activity MIC. For orientation: Agar dilution tests growth on a series of plates holding different concentrations.
The subject of series [2] is Pseudomonas aeruginosa IAM-1007. As to the kind of experiment: antibacterial activity, agar dilution method. It counts as cell-based.
Series [3] relates to Staphylococcus aureus 606 E-25. The series can be described thus: antibacterial activity, agar dilution method. It counts as cell-based.
The subject of the next series is Escherichia coli GN206. As to the kind of experiment: antibacterial activity, agar dilution method. It counts as cell-based.
The test system of series [4] is Serratia marcescens GN629. As to the kind of experiment: antibacterial activity, agar dilution method. It counts as cell-based.
For series [5], the system named is Pseudomonas aeruginosa MB3833. The series can be described thus: antibacterial activity, agar dilution method. It counts as cell-based.
A further series deals with Proteus rettgeli GN624. The series can be described thus: antibacterial activity, agar dilution method. It counts as cell-based. To be noted: read-out: Antibacterial Activity MIC.
Series [6] relates to Klebsiella pneumoniae GN118. The series can be described thus: antibacterial activity, agar dilution method. It counts as cell-based.
Series [7] deals with Citrobacter froindii GN346. As to the kind of experiment: antibacterial activity, agar dilution method. It counts as cell-based.
For a further series, the system named is mice. As to the kind of experiment: acute toxicity using mice. It counts as in vivo. To be noted: dose of 2 g/kg by intravenous injection. The source says:
Acute toxicity of the compound of Example 2 was examined using mice.

The mark [8] stands for this setting: IAM1007, Pseudomonas aeruginosa IAM-1007, agar dilution method, read-out: Antibacterial Activity MIC.
[9] abbreviates: 606E25, Staphylococcus aureus 606 E-25, agar dilution method, read-out: Antibacterial Activity MIC.
The mark [10] stands for this setting: Escherichia coli GN206, agar dilution method, read-out: Antibacterial Activity MIC.
Setting [11] is: Serratia marcescens GN629, agar dilution method, read-out: Antibacterial Activity MIC.
The mark [12] stands for this setting: Pseudomonas aeruginosa MB3833, agar dilution method, read-out: Antibacterial Activity MIC.
Setting [13] is: Proteus rettgeli GN624, agar dilution method.
[14] abbreviates: Klebsiella pneumoniae GN118, agar dilution method, read-out: Antibacterial Activity MIC.
Setting [15] is: Citrobacter froindii GN346, agar dilution method, read-out: Antibacterial Activity MIC.
[16] abbreviates: Klebsiella pneumoniae, GN118, read-out: Antibacterial Activity MIC.

Converted amounts (≈) assume the structure as drawn. Where two headings read alike, the source gives them in different places.

For `Cc1c(O)c(=O)cc(CO/N=C(\C(=O)NC2C(=O)N3C(C(=O)O)=C(CSc4nnnn4C)CSC23)c2csc(N)n2)n1O` (stereo not shown) [Example 4, 7-((Z)-2-(2-Aminothiazol-4-yl)-2-(6-methyl-1,5-dihydroxy-4-pyridon-2-ylmethoxyimino)acetamido)-3-(1-methyl-1H-tetrazol-5-ylthiomethyl)-3-cephem-4-carboxylic acid], the MIC in series [1] is below 0.025 µg/mL; in series [2] (setting [8]), below 0.025 µg/mL; in series [3] (setting [9]), 25 µg/mL (≈ 38.4 µM); with Escherichia coli GN206 (setting [10]), 0.1 µg/mL (≈ 0.154 µM); in series [4] (setting [11]), 0.05 µg/mL (≈ 0.0768 µM); in series [5] (setting [12]) it was below 0.025 µg/mL. Moreover, the results for the minimal inhibitory concentration (MIC) (in the series with Proteus rettgeli GN624 (setting [13]); in series [6] (setting [14]); in [7] (setting [15])) were 0.05 µg/mL (≈ 0.0768 µM), below 0.025 µg/mL and 6.25 µg/mL (≈ 9.61 µM), respectively.
As to `Cc1c(O)c(=O)cc(CO/N=C(\C(=O)NC2C(=O)N3C(C(=O)O)=C(CSc4cnns4)CSC23)c2csc(N)n2)n1O` (stereo not shown) [Example 2, 7-((Z)-2-(2-Aminothiazol-4-yl)-2-(6-methyl-1,5-dihydroxy-4-pyridon-2-ylmethoxyimino)acetamido)-3-(1,2,3-thiadiazol-5-yl-thiomethyl)-3-cephem-4-carboxylic acid], the “Acute toxicity (death)” value in the series on mice is recorded as “no death was noted”. Besides, the MIC in series [1] is below 0.025 µg/mL; in series [2] (setting [8]) it was below 0.025 µg/mL; in [3] (setting [9]) it was 12.5 µg/mL (≈ 19.2 µM); in the series with Escherichia coli GN206 (setting [10]), 0.39 µg/mL (≈ 0.598 µM); in series [4] (setting [11]) it was 0.05 µg/mL (≈ 0.0766 µM); in [5] (setting [12]), below 0.025 µg/mL. Further, the MIC was 0.1 µg/mL (≈ 0.153 µM) in the series on Proteus rettgeli GN624 (setting [13]), below 0.025 µg/mL in series [6] (setting [14]) and 6.25 µg/mL (≈ 9.58 µM) in series [7] (setting [15]).
Regarding `Cc1cc(=O)c(O)c(CO/N=C(\C(=O)NC2C(=O)N3C(C(=O)O)=C(CSc4cnns4)CSC23)c2csc(N)n2)n1O` (stereo not shown) [Example 6], the minimal inhibitory concentration (MIC) amounted to 0.05 µg/mL (≈ 0.0766 µM) in [1]; 0.39 µg/mL (≈ 0.598 µM) in [2] (setting [8]); 1.56 µg/mL (≈ 2.39 µM) in series [3] (setting [9]); 0.78 µg/mL (≈ 1.2 µM) with Escherichia coli GN206 (setting [10]); 0.2 µg/mL (≈ 0.306 µM) in series [4] (setting [11]); 0.39 µg/mL (≈ 0.598 µM) in series [5] (setting [12]). Further, the MIC in the series with Proteus rettgeli GN624 (setting [13]) was 0.1 µg/mL (≈ 0.153 µM); in series [6] (setting [16]), below 0.025 µg/mL; in series [7] (setting [15]), 6.25 µg/mL (≈ 9.58 µM).
On to `CC(C)(O/N=C(\C(=O)N[C@@H]1C(=O)N2C(C(=O)[O-])=C(C[n+]3ccccc3)CS[C@H]12)c1csc(N)n1)C(=O)O` [CAZ, reference compound], for which the MIC came to 0.39 µg/mL (≈ 0.714 µM) in [1]; 1.56 µg/mL (≈ 2.85 µM) in series [2] (Pseudomonas aeruginosa, IAM1007, read-out: Antibacterial Activity MIC); 12.5 µg/mL (≈ 22.9 µM) in [3] (Staphylococcus aureus, 606E25, read-out: Antibacterial Activity MIC); 1.56 µg/mL (≈ 2.85 µM) in the series with Escherichia coli GN206 (Escherichia coli, GN206, read-out: Antibacterial Activity MIC); 0.39 µg/mL (≈ 0.714 µM) in series [4] (Serratia marcescens, GN629, read-out: Antibacterial Activity MIC); 0.78 µg/mL (≈ 1.43 µM) in series [5] (Pseudomonas aeruginosa, MB3833, read-out: Antibacterial Activity MIC). The MIC in the series with Proteus rettgeli GN624 amounted to 1.56 µg/mL (≈ 2.85 µM); in [6] (setting [16]), 0.78 µg/mL (≈ 1.43 µM); in series [7] (Citrobacter, GN346, read-out: Antibacterial Activity MIC), 50 µg/mL (≈ 91.5 µM).
For `CO/N=C(\C(=O)N[C@@H]1C(=O)N2C(C(=O)O)=C(COC(C)=O)CS[C@H]12)c1csc(N)n1` [CTX, reference compound], the MIC turned out to be 0.2 µg/mL (≈ 0.439 µM) in series [1]; 12.5 µg/mL (≈ 27.4 µM) in series [2] (setting [8]); 1.56 µg/mL (≈ 3.43 µM) in series [3] (setting [9]); 1.56 µg/mL (≈ 3.43 µM) in the series on Escherichia coli GN206 (setting [10]); 0.39 µg/mL (≈ 0.856 µM) in [4] (setting [11]); 12.5 µg/mL (≈ 27.4 µM) in series [5] (setting [12]). The MIC in the series on Proteus rettgeli GN624 (setting [13]) amounted to 1.56 µg/mL (≈ 3.43 µM); in [6] (setting [14]), 0.05 µg/mL (≈ 0.11 µM); in series [7] (setting [15]), 12.5 µg/mL (≈ 27.4 µM).
